In patent publication US8623408B2, “Cladribine formulations for improved oral and transmucosal delivery” (Ares Trading S.A., priority 2003, dated 2014):
Values joined by “and” are separate entries in the source; they are usually repeats but may differ in a detail not shown here. Equal entries are not always repeated. Where two headings read alike, the source gives them in different places.

Test: Bioavailability and pharmacokinetic studies in beagle dog model
Type: in vivo
Design: AUC/Dose: unit not given here
Conditions: dogs; for AUC/Dose: dose in mg/kg; for concentration at 5 min: 5 mg/animal, read-out: Cfirst (first measured concentration at 5 minutes)
Protocol: The bioavailability of cladribine when complexed with γCD or HPβCD was evaluated in a beagle dog model.
Bioavailability and pharmacokinetic studies were conducted in a beagle dog model as follows.
Outbred male beagle dogs (identified as PM01-PM06) obtained from IDRI (Dunakeszi, Hungary) were allowed laboratory diet and water ad libitum. The same dogs were used throughout the study to minimize inter- and intrasubject variability. The bioavailability and pharmacokinetic studies were conducted as follows.
In the first test period, 5 mg cladribine (0.25 mg/ml in isotonic saline) was administered intravenously to test subjects. Blood samples were collected at various time intervals over 48 hours. In the second test period, half of the subjects received buccally a tablet as described above containing a saturated cladribine-γCD or -HPβCD complex. Serial blood samples were collected over 48 hours. The third test period repeated the second test period with the exception that the subjects previously receiving the γ-cyclodextrin buccal tablet were now given hydroxypropyl-β-cyclodextrin buccal tablets, with hydroxypropyl-β-cyclodextrin tablet recipients from the second period receiving γ-cyclodextrin buccal tablets. The fourth and fifth test periods repeated test periods two and three with the exception that the tablets were given orally.
Cladribine levels in the blood were measured by HPLC and an LC/MS/MS method. The TopFit 2.0 Pharmacokinetic and Pharmacodynamic Data Analysis System was used for the pharmacokinetic analysis of the data.
The peak areas, calibration curves, accuracy, precision values and the concentrations were determined using Analyst Software 1.1 (PE SCIEX, Foster City, US). For calculation of mean and standard deviation, Excel 5.0 software was used. The calibration curve was fitted using the ratio of concentrations of analyte and internal standard versus the ratio of the peak areas of them. A straight line was fitted on the experimental points by weighted least squares linear regression analysis. The weighting scheme used was 1/concentration squared as pg/ml plasma.
For calculation of mean, standard deviation and CV %, Excel 5.0 software was used. Lower levels than the limit of quantification were not accepted. Mean and S.D. values were calculated only for the concentrations measured after intravenous administration.
Pharmacokinetic analysis was performed on the basis of individual plasma concentration versus time curves. The mean and S.D. of parameters obtained from individual data were calculated. The linear-trapezoidal rule was used for calculation of the area under the plasma concentration time curve from 0 until the last measured concentration (AUD). Using the terminal regression line the area extrapolated to infinity (AUCt-∞) was calculated in the following way: AUCt-∞=ccalc/λz • where: Ccalc represents the estimated plasma concentration by the regression line at the last sampling time point with measured concentration above the limit of quantification, and λz represents the rate constant calculated from the regression line.
The points determining the regression line, i.e. the terminal phase, were selected by visual determination of the linear segment of the semilogarithmic curve. The total area under the curve (AUC) was calculated by adding together the partial areas: AUC=AUD+AUCt-∞. The AUC values were normalized by the actual dose given in the particular period. For calculation of the bioavailability, the buccal/oral AUC/dose value was divided by the intravenous AUC/dose value.

[1] = intravenous bolus, 5 mg cladribine/animal, Mean of 6 dogs
[2] = intravenous bolus, 5 mg cladribine/animal, individual dogs PM01-PM06

For `Nc1nc(Cl)nc2c1ncn2[C@H]1C[C@H](O)[C@@H](CO)O1` [cladribine, 2-chloro-2′-deoxyadenosine], which AUD [1] is on record?
The AUD was 377 ng·h/mL.

What about the AUDext [1] of the same molecule?
Its AUDext is 1.4%.

And the “Cinitial (extrapolated value at the end of the bolus)” value [1]?
The value was 563 ng/mL.

What about the MRTtot [1] of the same molecule?
Its MRTtot is 1.3 h.

What about the AUC/Dose [1] of the same molecule?
The AUC/Dose was 967.

And the AUC/Dose [2]?
Its AUC/Dose is 918 and 965 and 947 and 949 and 948 and 1077.

What about the AUC [2] of the same molecule?
Its AUC is 338 ng·h/mL and 366 ng·h/mL and 432 ng·h/mL and 342 ng·h/mL and 433 ng·h/mL.

What about the AUD [2] of the same molecule?
The AUD was 379 ng · h/ml and 334 ng · h/ml and 359 ng · h/ml and 426 ng · h/ml (2×) and 337 ng · h/ml.

And the AUDext [2]?
Its AUDext is 1.4% (3×) and 1.0% and 1.9% and 1.5%.

And the “Cfirst (first measured concentration at 5 minutes)” value [2]?
The value was 306 ng/mL and 478 ng/mL and 560 ng/mL and 446 ng/mL and 605 ng/mL.

What about the “Cinitial (extrapolated value at the end of the bolus)” value [2] of the same molecule?
The value was 569 ng/mL and 335 ng/mL and 567 ng/mL and 655 ng/mL and 525 ng/mL and 726 ng/mL.

And the Cltot [2]?
The Cltot was 247 mL/min and 228 mL/min and 193 mL/min and 244 mL/min and 192 mL/min.

And the Cltot/kg [2]?
The Cltot/kg was 17.6 mL/min/kg and 15.4 mL/min/kg.

What about the MRTtot [2] of the same molecule?
The MRTtot was 1.4 h and 1.5 h and 1.3 h (3×) and 1.2 h.

What about the t½ terminal [2] of the same molecule?
The t½ terminal was 11.3 h and 9.9 h and 10.4 h and 8.5 h and 10.7 h.

And the clearance (male, beagle, dog, plasma, iv, 5 mg, after intravenous administration, read-out: mean total clearance)?
Its clearance is 17 mL/min/kg.

What about the half-life (male, beagle, dog, plasma, iv, 5 mg, after intravenous administration, read-out: terminal elimination half-life (converted)) of the same molecule?
Its half-life is about 10 h.

What about the AUC (male, beagle, dog, plasma, iv, 5 mg, intravenous bolus, 5 mg cladribine/animal, Mean of 6 dogs, read-out: AUC) of the same molecule?
Its AUC is 382 ng·h/mL.

And the clearance (male, beagle, dog, plasma, iv, 5 mg, intravenous bolus, 5 mg cladribine/animal, Mean of 6 dogs, read-out: Cltot)?
The clearance was 220 mL/min.

What about the clearance (male, beagle, dog, plasma, iv, 5 mg, intravenous bolus, 5 mg cladribine/animal, Mean of 6 dogs, read-out: Cltot/kg) of the same molecule?
The clearance was 17.3 mL/min/kg.

And the half-life (male, beagle, dog, plasma, iv, 5 mg, intravenous bolus, 5 mg cladribine/animal, Mean of 6 dogs, read-out: t½ terminal (converted))?
The half-life was 10.3 h.

And the AUC (male, beagle, dog, plasma, iv, 5 mg, intravenous bolus, 5 mg cladribine/animal, individual dogs PM01-PM06, read-out: AUC)?
Its AUC is 383 ng·h/mL.

And the clearance (male, beagle, dog, plasma, iv, 5 mg, intravenous bolus, 5 mg cladribine/animal, individual dogs PM01-PM06, read-out: Cltot)?
Its clearance is 217 mL/min.

And the clearance (male, beagle, dog, plasma, iv, 5 mg, intravenous bolus, 5 mg cladribine/animal, individual dogs PM01-PM06, read-out: Cltot/kg)?
Its clearance is 18.1 mL/min/kg.

What about the half-life (male, beagle, dog, plasma, iv, 5 mg, intravenous bolus, 5 mg cladribine/animal, individual dogs PM01-PM06, read-out: t½ terminal (converted)) of the same molecule?
Its half-life is 11 h.

And the concentration at 5 min (male, beagle, dog, plasma, iv, intravenous bolus, 5 mg cladribine/animal, Mean of 6 dogs)?
The concentration at 5 min was 479 ng/mL.

And the concentration at 5 min (male, beagle, dog, plasma, iv, intravenous bolus, 5 mg cladribine/animal, individual dogs PM01-PM06)?
Its concentration at 5 min is 477 ng/mL.
